{
  "source": "patent US20260345615A1",
  "about": "“COMPOSITIONS COMPRISING SOTORASIB” (AMGEN INC., priority 2023, published 2026)",
  "key": {"[1]": {"test_system": "KRAS^G12C", "details": "role: inhibitor, background statement, cited from earlier work"}, "[2]": {"assay": "Stability testing: Thermal Gravimetric analysis (TGA), Example 2", "assay_type": "physicochemical", "protocol": "(§1) Stability testing of the three ASDs prepared in Example 1 was conducted over 2 months (T=0, 1 month and 2 months) using XRPD, TGA, DSC, PSD, and dissolution tests (FaSSIF and biorelevant media).\n(§2) Stability Testing: ASD samples were stored in low density polyethylene (LPDE) bags placed in a heat-sealed aluminum foil pouch along with desiccant. Foil pouches were then placed into a stability chamber at 25 °C/60% RH and taken out for stability testing (XRPD, TGA, DSC PSD, dissolution and biorelevant dissolution) at specified timepoints.\nThermal Gravimetric analysis (TGA): TGA was performed to evaluate presence for residual solvent and any thermal transitions which may result in weight loss. TGA was performed on a TA Instruments Discovery 550 Series analyzer at 5 °C/min from ambient temperature to 200 °C in a platinum pan under dry nitrogen at 25 ml/min. Sample size was ~2-8 mg."}, "[3]": {"assay": "Stability testing: XRPD, Example 2", "assay_type": "physicochemical", "protocol": "as §1, §2\nX-Ray Powder Diffraction (XRPD) Analysis: XRPD data was obtained using a Panalytical PW3040-PRO diffractometer. Samples were scanned at room temperature (25 °C) in continuous mode from 3-45 degrees (2θ) with step size of 0.03 degrees at 45 kV and 40 mA with CuKα radiation (1.54 A). The incident beam path was equipped with a primary soller slit 0.04 rad and a divergence slit 0.38 mm, in a fixed slit mode. Samples were prepared on a low background sample holder and placed on a spinning stage with a rotation time of 4 sec."}, "[4]": {"assay": "Particle size distribution (laser diffraction), Example 1", "assay_type": "physicochemical", "details": "Example 1, Table 1", "excerpt": "Particle Size Distribution (PSD): Analysis of each of the samples was obtained using a Sympatec Helos laser diffraction analyzer. The results of the particle size analysis are shown in Table 1 (D10, D50, and D90 values)."}, "[5]": {"assay": "Stability testing: DSC, Tg, Example 2", "assay_type": "physicochemical", "protocol": "as §1, §2\nDifferential Scanning Calorimetry (DSC) Analysis: DSC data is collected using a TA Instruments Q2500 DSC. Approximately, 2-6 mg of the sample was placed in a Tzero aluminum pan and sealed with Tzero lid. Method Log consist of equilibrating to −20 °C, holding Isothermal for 1.00 min, Ramping 10.00 °C/min to 160.0 °C, holding isothermal for 1.00 min, bringing down to Ramp of 10.00 °C/min to −20.00 °C, holding isothermal for 1.00 min, ramping 10.00 °C/min to 200 °C, marking end of cycle. Conditions were done under a nitrogen purge of about 50 mL/min."}, "[6]": {"assay": "Stability testing: particle size distribution (PSD), Example 2", "assay_type": "physicochemical", "protocol": "as §1, §2\nParticle Size Distribution (PSD): Analysis of each of the samples was obtained using a Sympatec Helos laser diffraction analyzer. The results are shown below (D10, D50, and D90 values)."}, "[7]": {"assay": "Stability testing: dissolution (FaSSIF), Example 2", "assay_type": "physicochemical", "details": "FaSSIF pH 6.50; all crystalline samples, first two timepoints of amorphous samples", "protocol": "as §1, §2\nDissolution (FaSSIF): The dissolution properties of ASDs 1-3 and the control spray-dried sotorasib were assessed as described herein. 5 mg of amorphous sotorasib (control), 5 mg of crystalline sotorasib (control), and 20 mg of ASDs1-3 as listed in Table 1 were added to separate 20 mL vials of FaSSIF (pH 6.50) and samples were collected at 5, 15, 20, 30, 60, 120, 180 min timepoints. […] The mobile phases were A:Water with 0.1% trifluoroacetic acid and B:Acetonitile with 0.1% trifluoroacetic acid. The method was a reverse gradient of 5% B 95% A to 98% B 2% A over 15 minutes using a wavelength 254 nm for detection and quantification."}},
  "data": [
    {"smiles": "C=CC(=O)N1CCN(c2nc(=O)n(-c3c(C)ccnc3C(C)C)c3nc(-c4c(O)cccc4F)c(F)cc23)[C@@H](C)C1", "note": "(atropisomer, axis not shown) [Sotorasib]", "values": [
      {"measurement": "activity at the target protein, atropisomers", "setting": "[1]; (M)- v. (P)-configuration", "result": "more active at the target protein than the (P)-configuration"},
      {"measurement": "inhibition of KRAS^G12C", "setting": "[1]", "result": "specifically and irreversibly inhibits"}
    ]},
    {"smiles": "C=CC(=O)N1CCN(c2nc(=O)n(-c3c(C)ccnc3C(C)C)c3nc(-c4c(O)cccc4F)c(F)cc23)[C@@H](C)C1", "note": "[sotorasib amorphous]", "values": [
      {"measurement": "TGA result (weight change)", "setting": "[2]; T = 0", "result": "<1", "unit": "%"},
      {"measurement": "TGA result (weight change)", "setting": "[2]; T = 1 month, 25 °C/60% RH", "result": "<1", "unit": "%"},
      {"measurement": "TGA result (weight change)", "setting": "[2]; T = 2 months, 25 °C/60% RH", "result": "<1", "unit": "%"},
      {"measurement": "XRPD result", "setting": "[3]; T = 0", "result": "amorphous"},
      {"measurement": "XRPD result", "setting": "[3]; T = 1 month, 25 °C/60% RH", "result": "amorphous"},
      {"measurement": "XRPD result", "setting": "[3]; T = 2 months, 25 °C/60% RH", "result": "amorphous"},
      {"measurement": "D10", "setting": "[4]", "result": "<1.0", "unit": "μm"},
      {"measurement": "D50", "setting": "[4]", "result": "<4.0", "unit": "μm"},
      {"measurement": "D90", "setting": "[4]", "result": "<16", "unit": "μm"},
      {"measurement": "DSC result - Tg", "setting": "[5]; T = 0, n1", "result": "n1: 147.7 °C"},
      {"measurement": "DSC result - Tg", "setting": "[5]; T = 0, n2", "result": "n2: 146.9 °C"},
      {"measurement": "DSC result - Tg", "setting": "[5]; T = 1 month, n1, 25 °C/60% RH", "result": "n1: 148.4 °C"},
      {"measurement": "DSC result - Tg", "setting": "[5]; T = 1 month, n2, 25 °C/60% RH", "result": "n2: 148.3 °C"},
      {"measurement": "DSC result - Tg", "setting": "[5]; T = 2 months, n1, 25 °C/60% RH", "result": "n1: 149.1 °C"},
      {"measurement": "DSC result - Tg", "setting": "[5]; T = 2 months, n2, 25 °C/60% RH", "result": "n2: 148.6 °C"},
      {"measurement": "PSD result - D10", "setting": "[6]; T = 0", "result": 0.8, "unit": "μm"},
      {"measurement": "PSD result - D50", "setting": "[6]; T = 0", "result": 3.6, "unit": "μm"},
      {"measurement": "PSD result - D90", "setting": "[6]; T = 0", "result": 13.4, "unit": "μm"},
      {"measurement": "PSD result - D10", "setting": "[6]; T = 1 month, 25 °C/60% RH", "result": 0.8, "unit": "μm"},
      {"measurement": "PSD result - D50", "setting": "[6]; T = 1 month, 25 °C/60% RH", "result": 4.2, "unit": "μm"},
      {"measurement": "PSD result - D90", "setting": "[6]; T = 1 month, 25 °C/60% RH", "result": 14.4, "unit": "μm"},
      {"measurement": "PSD result - D10", "setting": "[6]; T = 2 months, 25 °C/60% RH", "result": 0.8, "unit": "μm"},
      {"measurement": "PSD result - D50", "setting": "[6]; T = 2 months, 25 °C/60% RH", "result": 3.8, "unit": "μm"},
      {"measurement": "PSD result - D90", "setting": "[6]; T = 2 months, 25 °C/60% RH", "result": 13.5, "unit": "μm"}
    ]},
    {"smiles": "C=CC(=O)N1CCN(c2nc(=O)n(-c3c(C)ccnc3C(C)C)c3nc(-c4c(O)cccc4F)c(F)cc23)[C@@H](C)C1", "note": "[crystalline sotorasib]", "values": [
      {"measurement": "solubility (samples not diluted)", "setting": "[7]", "result": "low solubility"}
    ]}
  ]
}
